Our source for the IC50 values is patent US20250236608A1, “EGFR INHIBITORS” (Blueprint Medicines Corporation, priority 2022, published 2025).

In assay [1] the target is EGFR L858R (Homo sapiens (Human), UniProt P00533, L858R). In words: Biochemical EGFR inhibition assay, EGFR L858R. As to conditions: Caliper mobility shift; 1.0 mM ATP or ATP Km; read-out: Enz EGFR_L858R IC50.
Assay [2] addresses EGFR (d746-750) (Homo sapiens (Human), UniProt P00533, DEL746-750). In words: Biochemical EGFR inhibition assay, EGFR (d746-750). As to conditions: Caliper mobility shift; 1.0 mM ATP or ATP Km; read-out: Enz EGFR_Exon19-del746-750 IC50.
In assay [3] the target is pEGFR (Tyr1068) in PC-9 cells (Ex19Del) (Homo sapiens (Human), UniProt P00533, DEL746-750). The assay can be described thus: PC-9 pEGFR AlphaLISA assay. The assay is classed as cell-based. The note with it: 4 hours incubation, p-EGFR (Tyr1068) AlphaLISA, read-out: Ext pEGFR_PC-9 Ex19Del IC50. Put shortly: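 Phospho-EGFR (Tyr1068) was quantified by AlphaLISA SureFire Ultra in lysates of PC-9 cells exposed for 4 h to compound (4-fold, 10-point dilutions).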
pEGFR (Tyr1068) in PC-9 cells (Ex19Del), sequence (P00533 other isoform, or with tags, fused parts or gaps del 746-750): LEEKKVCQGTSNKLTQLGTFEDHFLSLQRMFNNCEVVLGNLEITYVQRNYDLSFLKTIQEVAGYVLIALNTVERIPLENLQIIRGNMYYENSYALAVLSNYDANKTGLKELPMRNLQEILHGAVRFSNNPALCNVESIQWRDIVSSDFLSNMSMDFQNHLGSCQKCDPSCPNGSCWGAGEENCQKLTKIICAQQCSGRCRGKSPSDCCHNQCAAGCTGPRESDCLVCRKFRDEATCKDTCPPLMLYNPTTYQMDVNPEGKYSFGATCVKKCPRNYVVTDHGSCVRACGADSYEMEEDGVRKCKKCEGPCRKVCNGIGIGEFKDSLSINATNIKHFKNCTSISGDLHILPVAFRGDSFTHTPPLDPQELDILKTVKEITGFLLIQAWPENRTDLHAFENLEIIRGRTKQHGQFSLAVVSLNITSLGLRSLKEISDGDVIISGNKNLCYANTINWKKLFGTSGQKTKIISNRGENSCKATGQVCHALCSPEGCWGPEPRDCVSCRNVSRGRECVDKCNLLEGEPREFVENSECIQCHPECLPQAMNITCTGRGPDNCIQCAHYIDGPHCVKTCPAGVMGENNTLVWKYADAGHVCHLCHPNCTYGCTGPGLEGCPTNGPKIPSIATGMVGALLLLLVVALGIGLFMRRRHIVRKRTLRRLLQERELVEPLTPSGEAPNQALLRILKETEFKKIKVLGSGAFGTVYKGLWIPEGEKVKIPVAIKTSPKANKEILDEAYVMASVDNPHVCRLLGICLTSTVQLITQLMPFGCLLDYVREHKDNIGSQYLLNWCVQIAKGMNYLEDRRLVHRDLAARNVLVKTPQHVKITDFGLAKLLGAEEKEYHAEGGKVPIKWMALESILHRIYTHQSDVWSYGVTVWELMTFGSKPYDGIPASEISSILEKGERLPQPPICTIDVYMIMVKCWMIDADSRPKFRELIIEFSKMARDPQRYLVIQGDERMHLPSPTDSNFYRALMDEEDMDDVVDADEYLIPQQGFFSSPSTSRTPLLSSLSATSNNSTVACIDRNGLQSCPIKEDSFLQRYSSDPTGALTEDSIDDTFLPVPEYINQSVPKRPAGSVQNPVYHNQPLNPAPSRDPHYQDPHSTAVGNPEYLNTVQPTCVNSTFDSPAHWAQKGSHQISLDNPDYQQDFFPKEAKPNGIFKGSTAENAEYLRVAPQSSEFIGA

EGFR L858R, sequence (P00533 25-1210 L858R): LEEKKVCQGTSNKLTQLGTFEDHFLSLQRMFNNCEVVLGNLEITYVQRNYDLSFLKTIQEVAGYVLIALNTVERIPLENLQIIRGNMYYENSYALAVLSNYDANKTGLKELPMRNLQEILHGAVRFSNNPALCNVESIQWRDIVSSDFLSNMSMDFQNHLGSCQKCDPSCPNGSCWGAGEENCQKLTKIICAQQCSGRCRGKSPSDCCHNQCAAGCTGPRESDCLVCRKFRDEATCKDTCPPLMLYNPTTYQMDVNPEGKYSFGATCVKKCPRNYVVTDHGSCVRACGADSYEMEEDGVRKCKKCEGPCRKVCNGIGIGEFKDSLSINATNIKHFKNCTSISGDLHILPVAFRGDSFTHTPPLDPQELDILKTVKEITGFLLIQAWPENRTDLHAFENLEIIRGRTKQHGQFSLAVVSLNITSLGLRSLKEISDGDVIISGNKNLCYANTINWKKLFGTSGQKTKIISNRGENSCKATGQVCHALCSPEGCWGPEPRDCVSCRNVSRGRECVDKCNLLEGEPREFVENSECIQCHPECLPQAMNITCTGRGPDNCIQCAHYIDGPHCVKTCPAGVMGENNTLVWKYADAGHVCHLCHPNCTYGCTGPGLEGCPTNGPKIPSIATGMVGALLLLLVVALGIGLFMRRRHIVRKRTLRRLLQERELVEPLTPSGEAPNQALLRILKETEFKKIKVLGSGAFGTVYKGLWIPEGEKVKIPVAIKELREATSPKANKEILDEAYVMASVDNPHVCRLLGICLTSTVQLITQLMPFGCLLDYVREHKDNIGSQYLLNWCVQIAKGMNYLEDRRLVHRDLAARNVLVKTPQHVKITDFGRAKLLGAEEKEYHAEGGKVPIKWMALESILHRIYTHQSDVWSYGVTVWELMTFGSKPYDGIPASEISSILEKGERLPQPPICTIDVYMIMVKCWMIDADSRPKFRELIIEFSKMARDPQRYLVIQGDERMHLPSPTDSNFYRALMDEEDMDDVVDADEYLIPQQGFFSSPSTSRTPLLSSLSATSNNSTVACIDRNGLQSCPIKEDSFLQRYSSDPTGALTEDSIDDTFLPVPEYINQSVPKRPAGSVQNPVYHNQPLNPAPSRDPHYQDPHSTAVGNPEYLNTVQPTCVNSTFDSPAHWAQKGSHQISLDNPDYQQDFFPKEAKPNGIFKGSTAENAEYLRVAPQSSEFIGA
EGFR (d746-750), sequence (P00533 other isoform, or with tags, fused parts or gaps del 1-694/del 746-750 limits assumed): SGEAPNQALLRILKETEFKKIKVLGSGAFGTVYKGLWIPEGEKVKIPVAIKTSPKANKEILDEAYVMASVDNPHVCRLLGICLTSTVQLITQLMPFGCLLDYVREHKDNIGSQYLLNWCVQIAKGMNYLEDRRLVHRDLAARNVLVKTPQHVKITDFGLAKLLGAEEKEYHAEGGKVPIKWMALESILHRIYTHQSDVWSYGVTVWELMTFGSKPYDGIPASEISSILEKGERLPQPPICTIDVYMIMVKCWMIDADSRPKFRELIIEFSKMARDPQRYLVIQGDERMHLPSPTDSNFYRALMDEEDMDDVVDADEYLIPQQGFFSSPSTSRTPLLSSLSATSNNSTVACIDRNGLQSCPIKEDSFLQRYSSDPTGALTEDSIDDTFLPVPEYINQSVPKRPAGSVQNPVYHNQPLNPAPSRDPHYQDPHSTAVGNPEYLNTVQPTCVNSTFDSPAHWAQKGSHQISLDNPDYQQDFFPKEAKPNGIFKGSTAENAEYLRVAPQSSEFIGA

Consider `COc1cc2ncnc(-c3cn(C)nc3-c3ccccc3)c2nc1NC(=O)[C@@]12C[C@@H]1CN(C)C2` (single isomer, unassigned) [Example 392, (1S,5S)—N-(7-methoxy-4-(1-methyl-3-phenyl-1H-pyrazol-4-yl)pyrido[3,2-d]pyrimidin-6-yl)-3-methyl-3-azabicyclo[3.1.0]hexane-1-carboxamide or (1R,5R)—N-(7-methoxy-4-(1-methyl-3-phenyl-1H-pyrazol-4-yl)pyrido[3,2-d]pyrimidin-6-yl)-3-methyl-3-azabicyclo[3.1.0]hexane-1-carboxamide], for which the IC50 came out at 6.1 nM in assay [1], 2.2 nM in assay [2] and 5.9 nM in assay [3].
In the same order, the values of `COc1cc2ncnc(-c3cn(C)nc3-c3ccccc3)c2cc1CO` [Example 119, (7-methoxy-4-(1-methyl-3-phenyl-1H-pyrazol-4-yl)quinazolin-6-yl)methanol] are 3.9 nM, 2.1 nM and 13.6 nM.
Take `COc1cc2ncnc(-c3cn(C)nc3-c3ccccc3)c2cc1NC(=O)C1(C)CCC1` [Example 348, N-(7-methoxy-4-(1-methyl-3-phenyl-1H-pyrazol-4-yl)quinazolin-6-y1)-1-methylcyclobutane-1-carboxamide]: the half-maximal inhibitory concentration (IC50) in assay [1] was 3.2 nM; in assay [2], 1.7 nM; in assay [3] it was 3.4 nM.
For `COc1cc2ncnc(-c3cn(C)nc3-c3ccccc3)c2cc1NC(=O)c1ccnn1C(C)C` [Example 218, 1-isopropyl-N-(7-methoxy-4-(1-methyl-3-phenyl-1H-pyrazol-4-yl)quinazolin-6-yl)-1H-pyrazole-5-carboxamide], the IC50 in assay [1] was found to be 2.1 nM; in assay [2] it was 1 nM; in assay [3] it was 2.7 nM.
Consider `Cn1cc(-c2ncnc3cc(OC(F)F)c(NC(=O)c4ccc(C5CC5)nc4)nc23)c(-c2ccccc2)n1` [Example 470, 6-cyclopropyl-N-[7-(difluoromethoxy)-4-(1-methyl-3-phenyl-1H-pyrazol-4-yl)pyrido[3,2-d]pyrimidin-6-yl]pyridine-3-carboxamide], for which the IC50 was determined as 26 nM in assay [1], 4.5 nM in assay [2] and 23.8 nM in assay [3].
In the same order, the values of `COc1cc2ncnc(-c3cn(C)nc3-c3ccc(F)cc3F)c2nc1NC(=O)C12CC(C1)C2` [Example 421, N-(4-(3-(2,4-difluorophenyl)-1-methyl-1H-pyrazol-4-yl)-7-methoxypyrido[3,2-d]pyrimidin-6-yl)bicyclo[1.1.1]pentane-1-carboxamide] are 1.3 nM, 1.8 nM and 1.9 nM.
As to `COc1cc2ncnc(-c3cn(C)nc3-c3ccccc3)c2cc1NC(=O)[C@H](C)N(C)C` (single isomer, unassigned) [Example 237, (R)-2-(dimethylamino)-N-(7-methoxy-4-(1-methyl-3-phenyl-1H-pyrazol-4-yl)quinazolin-6-yl) propenamide or (S)-2-(dimethylamino)-N-(7-methoxy-4-(1-methyl-3-phenyl-1H-pyrazol-4-yl)quinazolin-6-yl) propenamide], the 50% inhibitory concentration (IC50) was determined as 5.4 nM in assay [1], 2 nM in assay [2] and 6.6 nM in assay [3].
As to `COc1cc2ncnc(-c3cn(C)nc3-c3ccccc3)c2cc1NC(=O)[C@H]1C[C@H]1C` [Example 282, (1S,2R)—N-(7-methoxy-4-(1-methyl-3-phenyl-1H-pyrazol-4-yl)quinazolin-6-yl)-2-methylcyclopropane-1-carboxamide], the IC50 in assay [1] was 2.2 nM; in assay [2], 1.6 nM; in assay [3], 0.7 nM.
Regarding `COc1cc2ncnc(-c3cn(C)nc3-c3ccccc3)c2nc1NC(=O)c1cnn(C(F)(F)F)c1C` [Example 427, N-(7-methoxy-4-(1-methyl-3-phenyl-1H-pyrazol-4-yl)pyrido[3,2-d]pyrimidin-6-yl)-5-methyl-1-(trifluoromethyl)-1H-pyrazole-4-carboxamide], the half-maximal inhibitory concentration (IC50) in assay [1] was found to be 2 nM; in assay [2] it was 0.7 nM; in assay [3], 2.1 nM.
As to `COc1cc2ncnc(-c3cn(C)nc3-c3ccccc3)c2cc1NC(=O)C12COCC1C2` (stereo not drawn) [Example 278, N-(7-methoxy-4-(1-methyl-3-phenyl-1H-pyrazol-4-yl)quinazolin-6-yl)-3-oxabicyclo[3.1.0]hexane-1-carboxamide], the values for the IC50 in assay [1], in assay [2] and in assay [3] were 4.5 nM, 2.3 nM and 7.8 nM, respectively.
In the case of `CCOc1cc2ncnc(-c3cn(C)nc3-c3ccccc3)c2cc1NC(=O)c1ccc(C2CC2)nc1` [Example 297, 6-cyclopropyl-N-(7-ethoxy-4-(1-methyl-3-phenyl-1H-pyrazol-4-yl)quinazolin-6-yl)nicotinamide], the figures for the half-maximal inhibitory concentration (IC50) in assay [1], in assay [2] and in assay [3] were 0.9 nM, 0.5 nM and 0.9 nM, respectively.
Consider `COc1cc2ncnc(-c3cn(C)nc3-c3ccccc3)c2cc1-c1cnn(CCN(C)C)c1` [Example 233, 2-(4-(7-methoxy-4-(1-methyl-3-phenyl-1H-pyrazol-4-yl)quinazolin-6-yl)-1H-pyrazol-1-yl)-N,N-dimethylethan-1-amine], for which the IC50 in assay [1] was found to be 2.9 nM; in assay [2], 1.7 nM; in assay [3], 2.5 nM.
Consider `COc1cc2ncnc(-c3cn(C)nc3-c3ccccc3F)c2nc1NC(=O)[C@]12COC[C@H]1C2` (single isomer, unassigned) [Example 386, (1S,5S)—N-(4-(3-(2-fluorophenyl)-1-methyl-1H-pyrazol-4-yl)-7-methoxypyrido[3,2-d]pyrimidin-6-yl)-3-oxabicyclo[3.1.0]hexane-1-carboxamide or (1R,5R)—N-(4-(3-(2-fluorophenyl)-1-methyl-1H-pyrazol-4-yl)-7-methoxypyrido[3,2-d]pyrimidin-6-yl)-3-oxabicyclo[3.1.0]hexane-1-carboxamide], for which the IC50 in assay [1] stood at 2.1 nM; in assay [2] it was 1.1 nM; in assay [3], 1.7 nM.
Take `COc1cc2ncnc(-c3cn(C)nc3-c3ccccc3)c2cc1OC(=O)N1CCN(C)CC1(C)C` [Example 78, 7-methoxy-4-(1-methyl-3-phenyl-1H-pyrazol-4-yl)quinazolin-6-yl 2,2,4-trimethylpiperazine-1-carboxylate]: the IC50 in assay [1] came to 7 nM; in assay [2], 2.4 nM; in assay [3] it was 8.1 nM.
For `COc1cc2ncnc(-c3cn(C)nc3-c3ccccc3)c2cc1OC(=O)N1[C@H](C)CN(C)C[C@H]1C` [Example 89, 7-methoxy-4-(1-methyl-3-phenyl-1H-pyrazol-4-yl)quinazolin-6-yl (2R,6R)-2,4,6-trimethylpiperazine-1-carboxylate], the half-inhibitory concentration (IC50) in assay [1] worked out at 5.4 nM; in assay [2], 1.9 nM; in assay [3], 5.7 nM.
`COc1cc2ncnc(-c3cn(C)nc3-c3ccccc3)c2cc1NC(=O)c1ccncc1` [Example 351, N-(7-methoxy-4-(1-methyl-3-phenyl-1H-pyrazol-4-yl)quinazolin-6-yl)isonicotinamide]: the values for the half-inhibitory concentration (IC50) in assay [1], in assay [2] and in assay [3] were 3.1 nM, 1.7 nM and 4.6 nM, respectively.
As to `COc1cc2ncnc(-c3cn(C)nc3-c3ccccc3)c2cc1OC(=O)N1[C@@H](C)COC[C@@H]1C` [Example 64, 7-methoxy-4-(1-methyl-3-phenyl-1H-pyrazol-4-yl)quinazolin-6-yl (3S,5S)-3,5-dimethylmorpholine-4-carboxylate], the IC50 is 6.1 nM in assay [1], 2.1 nM in assay [2] and 13.7 nM in assay [3].
In the same order, the values of `COc1cc2ncnc(-c3cn(C)nc3-c3ccc(F)cc3)c2nc1NC(=O)C1(C(F)(F)F)CC1` [Example 362, N-(4-(3-(4-fluorophenyl)-1-methyl-1H-pyrazol-4-yl)-7-methoxypyrido[3,2-d]pyrimidin-6-yl)-1-(trifluoromethyl)cyclopropane-1-carboxamide] are 1.1 nM, 0.5 nM and 0.7 nM.
`COc1cc2ncnc(-c3cn(C(F)F)nc3-c3ccccc3)c2nc1NC(=O)C12CC(C1)C2` [Example 364, N-(4-(1-(difluoromethyl)-3-phenyl-1H-pyrazol-4-yl)-7-methoxypyrido[3,2-d]pyrimidin-6-yl)bicyclo[1.1.1]pentane-1-carboxamide]: the IC50 in assay [1] worked out at 2.1 nM; in assay [2] it was 1 nM; in assay [3], 4 nM.
Regarding `COc1cc2ncnc(-c3cn(C)nc3-c3ccccc3F)c2cc1NC(=O)C1(CN(C)C)CC1` [Example 188, 1-((dimethylamino)methyl)-N-(4-(3-(2-fluorophenyl)-1-methyl-1H-pyrazol-4-yl)-7-methoxyquinazolin-6-yl)cyclopropane-1-carboxamide], the IC50 in assay [1] turned out to be 2 nM; in assay [2], 0.8 nM; in assay [3], 1.3 nM.
On to `Cc1nnc([C@H](C)Oc2nc3c(-c4cn(C)nc4-c4ccccc4)ncnc3cc2OC2CC2)o1` (single isomer, unassigned) [Example 477, 2-[(1R)-1-{[7-cyclopropoxy-4-(1-methyl-3-phenyl-1H-pyrazol-4-yl)pyrido[3,2-d]pyrimidin-6-yl]oxy}ethyl]-5-methyl-1,3,4-oxadiazole or 2-[(1S)-1-{[7-cyclopropoxy-4-(1-methyl-3-phenyl-1H-pyrazol-4-yl)pyrido[3,2-d]pyrimidin-6-yl]oxy}ethyl]-5-methyl-1,3,4-oxadiazole], for which the IC50 in assay [1] amounted to 7.7 nM; in assay [2], 9 nM; in assay [3] it was 25 nM.
